By IC50 is commonly meant the concentration that gives 50% inhibition. A higher IC50 goes with a need for much substance.

The structures appear in SMILES notation. Structures can show the parent of a compound that is named as a salt.

From patent US20250230147A1, “LACTAMS AS CBL-B INHIBITORS” (Genentech, Inc., priority 2021, published 2025) come the findings set out here.

One assay addresses Cbl-b (Homo sapiens (Human), UniProt Q13191). In words: Cbl-b LCK Ub TR-FRET assay (Cbl-b Lck HTRF). It is filed as biochemical. The method in brief:
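Biotin-Cbl-b preincubated with compound (10-point 3-fold series) 60 min, then His-LCK with 1 mM ATP (2× mixture) added for 90 min at room temperature. Ubiquitination detected by TR-FRET using HA-ubiquitin/UBE2D2 adduct, anti-HA-D2 and streptavidin-Eu; IC50 normalised to no-LCK and DMSO controls.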
(In general: In TR-FRET formats the signal depends on donor and acceptor labels being close together.)

In the next assay the target is c-Cbl (Homo sapiens (Human), UniProt P22681). In words: C-Cbl LCK Ub TR-FRET assay (c-cbl Lck HTRF). Particulars: for (fold-selectivity): C-cbl Lck HTRF IC50 relative to Cbl-b Lck HTRF IC50. It is filed as biochemical. The method, boiled down:
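Signal is read once the detection mix has stood 20 min at ambient temperature. Curves are anchored by DMSO as maximum and by omission of LCK as minimum.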

Cbl-b, sequence (Q13191 40-426): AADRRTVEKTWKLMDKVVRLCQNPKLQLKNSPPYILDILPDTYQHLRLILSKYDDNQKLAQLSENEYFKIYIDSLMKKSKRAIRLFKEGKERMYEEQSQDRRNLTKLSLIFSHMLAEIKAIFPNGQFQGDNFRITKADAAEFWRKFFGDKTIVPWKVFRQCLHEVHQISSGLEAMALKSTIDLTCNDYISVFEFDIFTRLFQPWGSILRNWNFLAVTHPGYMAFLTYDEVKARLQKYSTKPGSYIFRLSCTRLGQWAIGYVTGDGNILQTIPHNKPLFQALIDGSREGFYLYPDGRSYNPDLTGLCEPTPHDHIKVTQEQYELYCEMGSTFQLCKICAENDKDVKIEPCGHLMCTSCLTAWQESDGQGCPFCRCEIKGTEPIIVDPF
c-Cbl, sequence (P22681 47-435): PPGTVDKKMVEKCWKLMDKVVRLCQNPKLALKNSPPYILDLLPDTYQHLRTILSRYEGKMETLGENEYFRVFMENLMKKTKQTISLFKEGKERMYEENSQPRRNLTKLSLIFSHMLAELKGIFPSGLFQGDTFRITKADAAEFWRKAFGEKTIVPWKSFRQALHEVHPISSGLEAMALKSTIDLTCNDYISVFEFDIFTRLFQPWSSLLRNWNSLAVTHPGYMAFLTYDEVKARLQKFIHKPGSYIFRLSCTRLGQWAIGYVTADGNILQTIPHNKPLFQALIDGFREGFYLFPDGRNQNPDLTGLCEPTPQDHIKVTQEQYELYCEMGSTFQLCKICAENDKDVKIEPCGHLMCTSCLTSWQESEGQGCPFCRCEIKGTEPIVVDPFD

Consider `Cn1cnnc1C(F)(F)C1(c2cccc(N3Cc4c(cc(CN)cc4C(F)(F)F)C3=O)c2)CC(F)(F)C1` [Compound 399, 6-(aminomethyl)-2-(3-(1-(difluoro(4-methyl-4H-1,2,4-triazol-3-yl)methyl)-3,3-difluorocyclobutyl)phenyl)-4-(trifluoromethyl)isoindolin-1-one], for which the midpoint of inhibition against Cbl-b, the IC50, lay at 0.51 µM. Further, on c-Cbl, the IC50 stood at 0.43 µM and the “(fold-selectivity)” value is “(0.84x)”.

With `CCOc1cc([C@H](C)Cc2nncn2C)cc(N2Cc3c(cc(CN4CCC5(CC5)C4)cc3C(F)(F)F)C2=O)n1` [Compound 56, (R)-6-((5-azaspiro[2.4]heptan-5-yl)methyl)-2-(6-ethoxy-4-(1-(4-methyl-4H-1,2,4-triazol-3-yl)propan-2-yl)pyridin-2-yl)-4-(trifluoromethyl)isoindolin-1-one formate], the values for the concentration for half-maximal inhibition (IC50) at Cbl-b and at c-Cbl were 0.016 µM and 0.022 µM, respectively.

For `Cn1cnnc1CC1(c2cc(NCC3CCNCC3)nc(N3Cc4c(cc(CNC5(C)CCC5)cc4C(F)(F)F)C3=O)c2)CCC1` [Compound 339, 2-(4-(1-((4-methyl-4H-1,2,4-triazol-3-yl)methyl)cyclobutyl)-6-((piperidin-4-ylmethyl)amino)pyridin-2-yl)-6-(((1-methylcyclobutyl)amino)methyl)-4-(trifluoromethyl)isoindolin-1-one], the IC50 against Cbl-b came to 0.53 µM. Also, on c-Cbl, the midpoint of inhibition, the IC50, lay at 0.36 µM and the “(fold-selectivity)” value was “(0.68x)”.

Regarding `Cn1cnnc1CC1(c2cc(C3CCC3)nc(N3Cc4c(cccc4C(F)(F)F)C3=O)c2)COC1` [Compound 265, 2-(6-cyclobutyl-4-(3-((4-methyl-4H-1,2,4-triazol-3-yl)methyl)oxetan-3-yl)pyridin-2-yl)-4-(trifluoromethyl)isoindolin-1-one], the IC50 at Cbl-b was 0.88 µM; on c-Cbl it was 1.3 µM. The “(fold-selectivity)” value at c-Cbl is listed as “(1.4x)”.

On to `Cn1cnnc1[C@@H](F)C1(c2cccc(N3Cc4c(cc(CNC5(C)CCC5)cc4C(F)(F)F)C3=O)c2)CC(F)(F)C1` [Compound 465, (S)-2-(3-(3,3-difluoro-1-(fluoro(4-methyl-4H-1,2,4-triazol-3-yl)methyl)cyclobutyl)phenyl)-6-(((1-methylcyclobutyl)amino)methyl)-4-(trifluoromethyl)isoindolin-1-one], for which the IC50 against Cbl-b is 0.014 µM; against c-Cbl, 0.013 µM. For the same compound, the “(fold-selectivity)” value at c-Cbl was “(0.90x)”.

As to `CC(=O)Nc1cc(C2(Cc3nncn3C)CCC2)cc(N2Cc3c(cc(CN4CCN(C)C[C@@H]4C(C)C)cc3C(F)(F)F)C2=O)n1` [Compound 330, (S)-N-(6-(6-((2-isopropyl-4-methylpiperazin-1-yl)methyl)-1-oxo-4-(trifluoromethyl)isoindolin-2-yl)-4-(1-((4-methyl-4H-1,2,4-triazol-3-yl)methyl)cyclobutyl)pyridin-2-yl)acetamide], the IC50 was 1 µM against Cbl-b and 1.2 µM on c-Cbl. For the same compound, on c-Cbl, the “(fold-selectivity)” value is reported as “(1.2x)”.

For the compound `CC1CC(C)(NCc2cc3c(c(C(F)(F)F)c2)CN(c2cccc(C4(Cc5nncn5C)CC(F)(F)C4)c2)C3=O)C1` (centres unmarked) [Compound 353, 2-(3-(3,3-difluoro-1-((4-methyl-4H-1,2,4-triazol-3-yl)methyl)cyclobutyl)phenyl)-6-(((1,3-dimethylcyclobutyl)amino)methyl)-4-(trifluoromethyl)isoindolin-1-one formate], the IC50 on Cbl-b was determined as 0.012 µM; at c-Cbl, 0.0066 µM.

For the compound `Cn1cnnc1C(F)(F)C1(c2cccc(N3Cc4c(cccc4C(F)(F)F)C3=O)c2)CC(F)(F)C1` [Compound 253, 2-(3-(1-(difluoro(4-methyl-4H-1,2,4-triazol-3-yl)methyl)-3,3-difluorocyclobutyl)phenyl)-4-(trifluoromethyl)isoindolin-1-one], the half-inhibitory concentration (IC50) at Cbl-b is 1.4 µM. On c-Cbl, it took 3.4 µM to reach half-maximal inhibition (IC50) and the “(fold-selectivity)” value is “(2.6x)”.

As to `CC(C)C1(O)CN(Cc2cc3c(c(C(F)(F)F)c2)CN(c2cccc(C4([C@H](F)c5nncn5C)COC4)c2)C3=O)C1` [Compound 184, (S)-2-(3-(3-(fluoro(4-methyl-4H-1,2,4-triazol-3-yl)methyl)oxetan-3-yl)phenyl)-6-((3-hydroxy-3-isopropylazetidin-1-yl)methyl)-4-(trifluoromethyl)isoindolin-1-one], the IC50 on Cbl-b turned out to be 0.16 µM. Moreover, at c-Cbl, the concentration for half-maximal inhibition (IC50) was 0.37 µM and the “(fold-selectivity)” value is 2.3x.

`Cn1cnnc1C(F)(F)C1(c2cccc(N3Cc4c(cc(CNC5(C)CCC5)cc4C(F)(F)F)C3=O)c2)CCC1` [Compound 235, 2-(3-(1-(difluoro(4-methyl-4H-1,2,4-triazol-3-yl)methyl)cyclobutyl)phenyl)-6-(((1-methylcyclobutyl)amino)methyl)-4-(trifluoro-methyl)isoindolin-1-one] showed an IC50 against Cbl-b of 0.015 µM. Also, at c-Cbl, the IC50 is 0.021 µM and the “(fold-selectivity)” value is given as “(1.4x)”.

For the compound `Cn1cnnc1[C@H](F)C1(c2cccc(N3Cc4c(cc(CNC5(C)CCC5)cc4C(F)F)C3=O)c2)COC1` [Compound 249, (R)-4-(difluoromethyl)-2-(3-(3-(fluoro(4-methyl-4H-1,2,4-triazol-3-yl)methyl)oxetan-3-yl)phenyl)-6-(((1-methylcyclobutyl)amino)methyl)isoindolin-1-one formate], the results for the IC50 at Cbl-b and on c-Cbl were 0.012 µM and 0.02 µM, respectively.

For the compound `Cn1cnnc1[C@@H](F)C1(c2cccc(N3Cc4c(cc(Oc5cn[nH]c5)cc4C(F)(F)F)C3=O)c2)COC1` [Compound 117, (S)-6-((1H-pyrazol-4-yl)oxy)-2-(3-(3-(fluoro(4-methyl-4H-1,2,4-triazol-3-yl)methyl)oxetan-3-yl)phenyl)-4-(trifluoromethyl)isoindolin-1-one], the half-maximal inhibitory concentration (IC50) on Cbl-b came out at 0.54 µM; at c-Cbl, 0.75 µM. For the same compound, at c-Cbl, the “(fold-selectivity)” value is recorded as 1.4x.

On Cbl-b, `Cn1cnnc1[C@@H](F)[C@@](C)(F)c1cccc(N2Cc3c(cc(CN4CC(C)(F)C4)cc3C(F)(F)F)C2=O)c1` [Compound 32, 2-(3-((1 R,2S)-1,2-difluoro-1-(4-methyl-4H-1,2,4-triazol-3-yl)propan-2-yl)phenyl)-6-((3-fluoro-3-methylazetidin-1-yl)methyl)-4-(trifluoromethyl)isoindolin-1-one] came in with an IC50 of 4.5 µM. In addition, at c-Cbl, the IC50 was found to be 11 µM and the “(fold-selectivity)” value turned out to be 2.5x.

Consider `CC(NCc1cc2c(c(C(F)(F)F)c1)CN(c1cccc(C3(Cc4nncn4C)CC(F)(F)C3)c1)C2=O)C1CC1` (centres unmarked) [Compound 319, 6-(((1-cyclopropylethyl)amino)methyl)-2-(3-(3,3-difluoro-1-((4-methyl-4H-1,2,4-triazol-3-yl)methyl)cyclobutyl)phenyl)-4-(trifluoromethyl)isoindolin-1-one formate], for which the 50% inhibitory concentration (IC50) on Cbl-b came to 0.014 µM; at c-Cbl, 0.016 µM.

In turn, `Cn1cnnc1[C@H](F)C1(c2cccc(N3Cc4c(cc(CN5CCCC5)cc4C(F)(F)F)C3=O)c2)CC(F)(F)C1` [Compound 395, (R)-2-(3-(3,3-difluoro-1-(fluoro(4-methyl-4H-1,2,4-triazol-3-yl)methyl)cyclobutyl)phenyl)-6-(pyrrolidin-1-ylmethyl)-4-(trifluoromethyl)isoindolin-1-one] yielded an IC50 at Cbl-b of 0.11 µM. Moreover, at c-Cbl, the IC50 came to 0.11 µM and the “(fold-selectivity)” value is on record as “(1.0x)”.

With `Cc1cnnn1CC1(c2cccc(N3Cc4c(cc(CNC5(C)CCC5)cc4C(F)(F)F)C3=O)c2)COC1` [Compound 243, 2-(3-(3-((5-methyl-1H-1,2,3-triazol-1-yl)methyl)oxetan-3-yl)-phenyl)-6-(((1-methylcyclobutyl)amino)methyl)-4-(trifluoromethyl)isoindolin-1-one], the IC50 was determined as 0.029 µM against Cbl-b and 0.047 µM on c-Cbl. Also, the “(fold-selectivity)” value on c-Cbl was “(1.6x)”.

Consider `Cn1cnnc1[C@@H](F)C1(c2cccc(N3Cc4c(cc(CN5CC(CCO)C5)cc4C(F)(F)F)C3=O)c2)COC1` [Compound 178, (S)-2-(3-(3-(fluoro(4-methyl-4H-1,2,4-triazol-3-yl)methyl)oxetan-3-yl)phenyl)-6-((3-(2-hydroxyethyl)azetidin-1-yl)methyl)-4-(trifluoromethyl)isoindolin-1-one], for which the half-inhibitory concentration (IC50) against Cbl-b came to 0.17 µM. For the same compound, at c-Cbl, half-maximal inhibition (IC50) was put at 0.35 µM and the “(fold-selectivity)” value came to 2.0x.

As for `Cn1cnnc1CC1(c2cc(-c3ccccc3)nc(N3Cc4c(cc(CNC5(C)CCC5)cc4C(F)(F)F)C3=O)c2)CCC1` [Compound 324, 2-(4-(1-((4-methyl-4H-1,2,4-triazol-3-yl)methyl)cyclobutyl)-6-phenylpyridin-2-yl)-6-(((1-methylcyclobutyl)amino)methyl)-4-(trifluoromethyl)isoindolin-1-one], at Cbl-b, half-maximal inhibition (IC50) required 0.012 µM. Besides, on c-Cbl, inhibition was half-maximal at 0.0076 µM (IC50) and the “(fold-selectivity)” value was “(0.66x)”.

`CNCc1cc2c(c(C(F)(F)F)c1)CN(c1cc(C3(Cc4nncn4C)COC3)cc(NC3CCCC3)n1)C2=O` [Compound 277, 2-(6-(cyclopentylamino)-4-(3-((4-methyl-4H-1,2,4-triazol-3-yl)methyl)oxetan-3-yl)pyridin-2-yl)-6-((methylamino)methyl)-4-(trifluoromethyl)isoindolin-1-one] displayed a half-inhibitory concentration (IC50) against Cbl-b of 0.23 µM. Moreover, at c-Cbl, the 50% inhibitory concentration (IC50) came to 0.87 µM and the “(fold-selectivity)” value is “(3.8x)”.

As to `Cn1cnnc1[C@@H](F)C1(c2cccc(N3Cc4c(cc(CN5CCC(F)(CO)CC5)cc4C(F)(F)F)C3=O)c2)COC1` [Compound 134, (S)-2-(3-(3-(fluoro(4-methyl-4H-1,2,4-triazol-3-yl)methyl)oxetan-3-yl)phenyl)-6-((4-fluoro-4-(hydroxymethyl)piperidin-1-yl)methyl)-4-(trifluoromethyl)isoindolin-1-one], the concentration for half-maximal inhibition (IC50) turned out to be 0.21 µM against Cbl-b and 0.67 µM at c-Cbl. Further, at c-Cbl, the “(fold-selectivity)” value was determined as 3.3x.
